1 substance from patent US11319374B2, “Inhibitors of prototypic galectin dimerization and uses thereof” (INSTITUT NATIONAL DE LA RECHERCHE SCIENTIFIQUE, priority 2015, dated 2022) can be followed below.

In one test the test system is Jurkat T cells. The test is described as follows: FITC-labeled hGal-7 binding on Jurkat T cells, flow cytometry. Format: cell-based. The conditions noted are these: FITC-labeled hGal-7 0.1 μM pre-incubated with peptide, FIG. 4. As to the method:
FITC conjugation and hGal-7 binding assay. To assess hGal-7 binding onto Jurkat T cells, 5 μL of a 1.25 mg/mL fluorescein isothiocyanate (FITC)/DMSO solution was added to 300 μL of 1.7 μg/μL recombinant hGal-7 in a 0.1 M NaHCO3 pH 9.2 solution and incubated for 1 h at room temperature on a roller. FITC-labeled hGal-7 was then purified using a PD-10 Sepharose® column (GE healthcare) and eluted with PBS containing 0.01% [v/v] sodium azide. FITC-labeled hGal-7 (0.1 μM) was then pre-incubated with hGal-7(129-135) (or related peptides) in 20 mM potassium phosphate buffer pH 7.1 for 1 h at 4° C. Jurkat cells (5×10^5 cells per sample) were harvested in PBS-0.01% [v/v] sodium azide and incubated for 30 min on ice with the FITC-labeled hGal-7 with and without peptides. Cells were then washed with PBS-0.01% [v/v] sodium azide and resuspended in 400 μL of the same buffer and analyzed on a FACSCalibur® (BD Biosciences®).
It was thus tested whether hGal-7(129-135) could modulate the binding of hGal-7 on Jurkat T cells, a cell model that is commonly used to test the pro-apoptotic activity of galectins. For this purpose, recombinant hGal-7 was labeled with fluorescein isothiocyante (FITC) and its binding on the surface of Jurkat T cells was measured by flow cytometry in absence or presence of increasing concentrations of hGal-7(129-135). […]
On the technique in general: Flow cytometry measures light scatter and fluorescence of single cells or particles in a stream.

Test [1] deals with T1, recombinant human Gal-1 (hGal-1) (Homo sapiens, UniProt P09382).
T1 construct: made in house; host or cells: E. coli BL21 (DE3)
T1 sequence (P09382 2-135 limits assumed): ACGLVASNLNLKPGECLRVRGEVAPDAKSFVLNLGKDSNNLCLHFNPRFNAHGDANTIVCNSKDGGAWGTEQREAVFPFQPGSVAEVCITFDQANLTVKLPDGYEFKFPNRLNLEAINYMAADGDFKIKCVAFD
The test is described as follows: hGal-1 dimer disruption (galectin selectivity control), low-SDS Western blotting. Format: biochemical. The conditions noted are these: recombinant hGal-1, FIG. 2C. Here is the method:
Production of recombinant hGal-7 and hGal-1. Human Gal-7 cDNA was cloned into pET-22b(+) using Ndel and HindIII restriction enzymes. Human pET-Gal-1 vector was generously donated by Dr. S. Sato (McGill University, QC, Canada). The proteins were produced in E. coli BL21 (DE3) cells at 37° C. Isopropyl p-D-1-thiogalactopyranoside (IPTG) (1 mM) was added to the bacterial culture at OD600nm=0.6-0.7 and then incubated for 4 h at 37° C. to allow protein production. Bacterial pellets were resuspended in lysis buffer (0.7 mg/mL lysozyme, 10 mM Tris pH 8, 100 mM NaCl, 1 mM EDTA, 1 mM DTT and a protease inhibitor cocktail) and then incubated for 1 h at 37° C. prior to centrifugation for 30 min at 15,000×g (4° C.). The supernatant was then filtered with 500 mL bottle top filter ([…]) (Corning®, New York, N.Y., USA) and then ran through a lactose-agarose column (Sigma®, St. Louis, Mo., USA). The protein was eluted in 1 mL fractions with 150 mM lactose solution. Purified fractions were analyzed by SDS-PAGE. […]
To determine whether these peptides could inhibit the formation of the hGal-7 homodimer, recombinant hGal-7 (0.5 μM) was incubated with increasing concentrations of hGal-7(13-25), hGal-7(85-102), hGal-7(95-108) or hGal 7(129-135) and the formation of homodimers was measured. […]
(A western blot detects proteins with antibodies after separation by electrophoresis.)

On to “H-Leu-Asp-Ser-Val-Arg-Ile-Phe-NH2 (H-LDSVRIF-NH2; listed as Homo sapiens) [hGal-7(129-135), peptide corresponding to residues 129-135 of hGal-7]”, for which the “fluorescent intensity of Jurkat T cells due to FITC-labeled hGal-7 binding” value with Jurkat T cells is on record as “increased the fluorescent intensity of Jurkat T cells in a concentration-dependent manner”. The “effect on hGal-1 dimer” value in test [1] was “No such effect was observed”.
